# Test results published in patent US20190284293A1, “COMBINATION THERAPY WITH ANTI-CD73 ANTIBODIES” (BRISTOL-MYERS SQUIBB COMPANY, priority 2016, published 2019).
# What was measured:
# [1] = biological target: T1, endogenous CD73 activity in Calu-6 cells (Homo sapiens, UniProt P21589); experiment: Dual cell line HTRF cAMP assay (Calu-6 and HEK293/A2AR cells); format: cell-based
# T1 construct: Calu6 (CD73 endogenous expressors; human pulmonary adenocarcinoma cell line); endogenous in cells; host or cells: Calu6 (Calu-6) human pulmonary adenocarcinoma cells
# T1 sequence (P21589 27-549): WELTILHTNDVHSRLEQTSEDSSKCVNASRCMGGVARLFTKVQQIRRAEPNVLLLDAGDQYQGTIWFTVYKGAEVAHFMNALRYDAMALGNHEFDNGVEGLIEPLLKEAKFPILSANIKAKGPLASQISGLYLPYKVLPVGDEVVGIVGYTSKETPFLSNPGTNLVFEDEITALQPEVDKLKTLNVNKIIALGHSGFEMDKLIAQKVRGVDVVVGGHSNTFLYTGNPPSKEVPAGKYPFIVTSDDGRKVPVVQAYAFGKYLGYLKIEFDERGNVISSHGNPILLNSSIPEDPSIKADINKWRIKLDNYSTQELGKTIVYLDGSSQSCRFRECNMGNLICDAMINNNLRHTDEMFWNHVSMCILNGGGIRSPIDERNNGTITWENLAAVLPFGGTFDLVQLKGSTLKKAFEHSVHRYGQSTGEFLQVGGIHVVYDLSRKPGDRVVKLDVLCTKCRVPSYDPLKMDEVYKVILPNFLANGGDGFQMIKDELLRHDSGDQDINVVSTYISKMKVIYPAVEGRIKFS
# Procedure: CD73 antibodies were serial diluted with PBS buffer containing 0.2% BSA, and plated 5 μl/well in 384 well white bottom proxiplate (PerkinElmer, Waltham, Mass.). Calu-6 cells were harvested and resuspend in PBS containing 0.2% BSA, then 5 μl of cells (300 cells/well) were added to the plate. The cells were incubated with antibodies for 10 minutes at 37° C. […] The cells were further incubated with AMP for 30 minutes at 37° C. During this time, HEK293/A2AR cells were harvested and diluted to 0.4 million/ml in PBS containing 0.2% BSA. They were added into the assay plate at 5 μl/well and continued to incubate at 37° C. for 1 hr. HRTF assays were performed using the homogenous time-resolved fluorescence (HTRE) HiRange cAMP detection kit (Cisbio, Bedford, Mass.) by adding 10 cAMP-conjugated d2 and 10 europium conjugated anti-cAMP antibody in lysis buffer according to the manufacturer's instructions. Plates were incubated at room temperature for 60 minutes and Fluorescence Resonance Energy Transfer (FRET) signals (665 and 615 nM) were read using an EnVision plate reader (PerkinElmer, Waltham, Mass.). The FRET signal was calculated as the ratio of signal from the 665 nm (acceptor) and 615 nm (donor) channels and multiplied by 10,000. IC50 and Ymax were measured. […] All calculations were determined as a percentage of inhibition compared to this control, which was set to 100%.
# all other FcγRs = experiment: SPR binding of constructs to human FcγRs; conditions: read-out: binding affinity to all other FcγRs
# Procedure: Binding of the constructs to human FcγRs was measured via SPR. hCD64 and hCD32a-H131 binding data for IgG1.1 and IgG2 molecules were consistent with expected values for the different Fcs. IgG1.1f is the most inert Fc.
# human FcRn = human FcRn (Homo sapiens, UniProt P55899); experiment: SPR binding to human FcRn; conditions: strong at pH6, weak binding with fast dissociation at pH 7.4
# cyno FcγRs = experiment: SPR binding of constructs to cyno FcγRs; conditions: read-out: binding affinity to cyno FcγRs
Kd (all other FcγRs),binding to human FcRn (human FcRn),Kd (cyno FcγRs),Compound,IC50 ([1]; cAMP assay),Ymax ([1]; percentage of inhibition compared to 100 nM 11F11 set to 100%)
,,,Nc1ncnc2c1ncn2[C@@H]1O[C@H](COP(=O)(O)CP(=O)(O)O)[C@@H](O)[C@H]1O [APCP],0.00129 µM,97
< 5 µM,pH-dependent binding,> 5 µM,"IgG2-C219S-G1.1f: effectorless IgG1/IgG2 hybrid constant region: CH1 and hinge from IgG2 (C219S), CH2 and CH3 of IgG1 (A330S/P331S); SEQ ID NO:169",,
